pKd: −log10 of the molar value. Ends that are not written are not given here.
Columns and labels:
INS-1 or Min6 beta cells = assay: SDF-1 mRNA by QPCR in injured beta cells; type: cell-based; conditions: 3 to 20 hrs
Procedure: FIG. 15. […] INS-1 or Min6 beta cells were treated for 3 to 20 hrs with the stress/apoptosis inducers, thapsigargin, streptozotocin (STZ), or mixtures of cytokines (listed at the bottom of the right lower panel). SDF-1 mRNA was measured in cell extracts by QPCR. Cytokines also stimulate the secretion of SDF-1 Protein (see new FIG. 21).

Wnt signaling [1] = assay: Wnt signaling reporter (beta-galactosidase) in isolated islets of TopGal mouse; type: cell-based; conditions: added with SDF-1, isolated TopGal mouse islets
From the text: A. Isolated islets express reporter-driven beta-galactosidase. The dark regions mark the expression of beta-galactosidase, an indicator of the activation of the Wnt signaling reporter LacZ transgene. […] B. Polymerase chain reaction showing changes in beta-galactosidase mRNA levels in islets shown in panel A.
Isolated mouse pancreatic islets Mouse islets were isolated (Lacy PE (1994) Pancreatic islet cell transplant. Mt Sinai J. Med. 61:23-31.) from the pancreata of TopGal reporter mice transgenic for the LEF-LacZ Wnt signaling reporter (DasGupta R, Fuchs E (1999) Development. 1999 126:4557-4568.). Freshly isolated islets were treated for 4 hrs with SDF-1 with and without the addition of the Galphai/o inhibitor pertussis toxin (PTX) or the CXCR4 antagonist AMD3100. Betagalactosidase activity was determined by incubation of the islets with X-gal for 6 hrs.
Polymerase chain reaction analyses of betagalactosidase mRNA levels in isolated mouse islets Islets from TopGal mice were harvested after treatments with SDF-1, SDF-1+AMD3100, and SDF-1+pertussis toxin. RNA was extracted and beta galactosidase mRNA levels were measured by PCR using a SYBR Green QPCR kit (Stratagene) with the primers as described in Liu Z, Habener J F 2008 Glucagon-like Peptide-1 Activation of TCF7L2-dependent Wnt Signaling Enhances Pancreatic Beta Cell Proliferation. […]

Wnt signaling [2] = assay: Wnt signaling luciferase reporter assay (TOPflash/FOPflash) in INS-1 cells; type: cell-based
Procedure: Wnt signaling is indicated by the value of TOPflash luciferase activity divided by FOPflash activity. A. Time course of the TOPflash:FOPflash ratio of INS-1 cell treated with 1 nM SDF-1. B. Ratio of TOPflash to FOPflash activity in INS-1 cells treated with increasing doses of SDF-1. C. […] All values are relative to the value of the untreated INS-1 cells. Data are normalized for transfection efficiency by co-transfected beta-galactosidase and represent means±S.D. of three experiments.
All values are relative to the first (leftmost) bar. Statistical significance is depicted as * (p<0.05) when compared with control values (leftmost bar). Data are normalized for transfection efficiency by co-transfected beta-galactosidase and represent means±S.D. of three experiments.
Wnt Signaling Luciferase Reporter Assay (TOPflash) INS-1 cells were plated into 24-well dishes 24 hr before transfection with TOPflash or the mutant, control reporter, FOPflash (1 microg/well) using LipofectAMINE2000 (Invitrogen). Various concentrations of SDF-1 or AMD3100 were then added to the culture medium 24 h following transfection for the indicated period of time. In studies in which inhibitors were used, LY294002 (50 microM), PD98059 (10 microM) or SH-5 (10 nM) were added concomitantly with SDF-1. In studies in which wild-type (wt), dominant-negative (dn) or contitutively-active (ca) forms of kinase were used, dnTCF7L2, dnGSK3beta, caGSK3beta, dnAkt, or caAkt (0.5 microg/well) was cotransfected with TOPflash. Luciferase activity in transfected cells was determined with a luciferase assay kit (Promega).
We examined SDF-1 induction of Wnt signaling using a Wnt signaling reporter assay (TOPflash/FOPflash). The TOPflash and FOPflash constructs contain the luciferase reporter either under the control of consensus TCF7L2-binding sites or mutated TCF7L2-binding sites, respectively. Luciferase activity was measured during 4 hr after addition of 1 nM SDF-1 (FIG. 3A).

INS-1 cells [3] = assay: ATP-lite cell viability assay, serum deprivation, SDF-1 with AMD3100; type: cell-based; conditions: serum-free, SDF-1 2 nM
Procedure: ATP lite cell viability assay: INS-1 cells were plated in 96 well plates. SDF-1 (2 nM) and AMD3100 were added at day 0, 2, 4 and cell viability was measured at day 6 using relative light units (RLU) as compared to control. N=6.
INS-1 cells were plated in 96 well plates in control medium (no serum) or a medium containing 2% serum. SDF-1 (2 nM) and SDF-1 (2 nM) along with various concentrations of AMD3100 (2 uM, 0.4 uM, 80 nM, 16 nM) were added to different cell groups incubated in serum-free medium at days 0, 2, 4, and cell viability was measured at day 6 using relative light units (RLU) as compared to control.

INS-1 cells [4] = conditions: serum-free, SDF-1 2 nM, AMD3100 16 nM-2 uM, day 6
Procedure: INS-1 cells were plated in 96 well plates in control medium (no serum) or a medium containing 2% serum.

INS-1 or MIN6 cells = assay: Thapsigargin-induced apoptosis, caspase-3 activity assay; type: cell-based; conditions: thapsigargin 1 microM, 16 h
Procedure: FIG. 6. Inhibition of apoptosis by SDF-1 in INS-1 and MIN-6 cells is reversed by knock-down of betacatenin. A. Western blot analysis of extracts from MIN6 cells that were mock treated, thapsigargin-treated (1 μM) and/or siRNA transfected (0.25 mg/ml), by using anti-serum against cleaved caspase-3 (upper panel), anti-serum against cleaved PARP (middle panel) and actin antibody (lower panel) as a loading control. B. Caspase-3 activity (fluorescence/mg proteinx105) of INS-1 or MIN6 cells mock treated, thapsigargin-treated (1 μM) and/or siRNA transfected (0.25 mg/ml). Results are presented as mean±SD for n=3 independent experiments, All values are relative to the first (leftmost) bar. […] Quantification of apoptotic cells is expressed as percent apoptotic cells relative to the total cells counted (lower left panel). […]
Thapsigargin-induced apoptosis in INS-1 or MIN6 cells For western immuoblot assay (Cell Signaling), MIN6 cells were seeded into 6 well plates then treated with 1 microM thapsigargin or DMSO control for 16 h and apoptotic activity was measured by Western immunoblotting using antisera specific for cleaved (active) caspase-3 (Cell signaling #9661) and cleaved (active) PARP (Cell signaling #9548). For caspase-3 assay, INS-1 cells or MIN-6 cells in 24-well plates were treated with 1 microM thapsigargin or DMSO for 16 hand caspase-3 activity was determined (Molecular Probes). […]

insulin producing cells = conditions: in vitro, equimolar quantities; cited from earlier work
mice = assay: Infusion of GLP-1(28-36) amide nonapeptide into mice, islet size; type: in vivo; conditions: infusions into mice, preliminary
From the text: (§1) The inventors have done preliminary studies using GLP-1(28-36), a nine amino acid peptide (the “nonapeptide”) cleaved from the C-terminus of GLP-1 (SEQ ID NO:4). In the studies, the inventors used the peptide having an arginine amide at the C-terminus (FIAWLVKGR-amide). […] The nonapeptide works both when applied to cells in vitro/ex vivo and when infused into mice in vivo.

pancreatic beta cell = assay: Preliminary studies of nonapeptide on pancreatic beta cell survival and growth; type: cell-based; conditions: preliminary data
From the text: as §1

[5] = tested on: INS-1 cells and mouse islets; assay: GLP-1 pro-proliferative and cytoprotective actions; type: cell-based; conditions: tentative

## CN(N=O)C(=O)N[C@H]1C(O)O[C@H](CO)[C@@H](O)[C@@H]1O (mixture of isomers) [streptozotocin]
INS-1 or Min6 beta cells
  SDF-1 expression (mRNA) in injured beta cells: induces SDF-1 expression

## c1cc(CN2CCCNCCNCCCNCC2)ccc1CN1CCCNCCNCCCNCC1 [AMD3100]
Wnt signaling [1]
  effect on SDF-1-induced Wnt signaling response in TopGal islets: inhibition
Wnt signaling [2]; coincubation with increasing amounts
  effect on SDF-1 activation of luciferase activity (TOPflash/FOPflash): antagonized
INS-1 cells [3]; AMD3100 16 nM-2 uM
  effect on SDF-1 mediated cell survival: partially and dose-dependently blocked
INS-1 cells [3]; day 6
  effective concentration for blocking SDF-1 mediated cell survival: around 1 uM
INS-1 cells [4]
  effect on SDF-1 mediated insulin production: partially and dose-dependently blocked

## COc1cccc(-c2cc(=O)c3ccccc3o2)c1N [PD98059]
Wnt signaling [2]; LY294002 50 microM, PD98059 10 microM, SH-5 10 nM
  effect on SDF-1-stimulated TOPflash activity: does not affect
Wnt signaling [2]; no SDF-1
  effect on basal level TOPflash activity: do not affect

## C/C=C(/C)C(=O)O[C@H]1C(C)=C2[C@H]([C@@H]1OC(=O)CCCCCCC)[C@@](C)(OC(C)=O)C[C@H](OC(=O)CCC)[C@@]1(O)[C@H]2OC(=O)[C@@]1(C)O [Thapsigargin, reference compound]
INS-1 or MIN6 cells
  induction of caspase-3 activity: threefold
INS-1 or Min6 beta cells
  SDF-1 expression (mRNA) in injured beta cells: induces SDF-1 expression

## Exendin-4: GLP-1 agonist peptide from Gila Monster salivary glands, SEQ ID NO: 3
Insulin producing cells
  potency at causing insulin release: more potent than GLP-1

## FIAWLVKGR-amide (FIAWLVKGR-NH2) [GLP-1(28-36) amide nonapeptide]
mice
  islet size in mice: enhances islet size
Pancreatic beta cell
  pancreatic beta cell survival and growth: profound effects

## glucoincretin hormone, SEQ ID NO: 2, HAEGTFTSDVSSYLEGQAAKEFIAWLVKGRG [GLP-1]
[5]
  pKd: 9.00
  cytoprotective actions (concentration): 10 nM
